One experiment deals with T1, murine PGP-WT (Mus musculus, UniProt Q8CHP8).
T1 construct: His6 (N, cleaved yes); made in house; host or cells: Escherichia coli BL21 (DE3), pETM11, co-expressed with groES-groEL-tig
T1 sequence (Q8CHP8 1-321): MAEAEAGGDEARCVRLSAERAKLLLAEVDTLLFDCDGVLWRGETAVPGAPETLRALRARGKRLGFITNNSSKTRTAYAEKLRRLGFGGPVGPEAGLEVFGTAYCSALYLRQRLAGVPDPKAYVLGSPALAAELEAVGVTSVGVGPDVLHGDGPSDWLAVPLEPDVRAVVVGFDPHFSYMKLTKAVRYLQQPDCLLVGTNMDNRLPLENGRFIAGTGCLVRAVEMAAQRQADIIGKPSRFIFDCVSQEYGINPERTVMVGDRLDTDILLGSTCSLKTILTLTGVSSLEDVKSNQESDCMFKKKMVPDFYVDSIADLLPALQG
The experiment is described as follows: Isothermal titration calorimetry, PGP-WT. The format is binding. The note with it: ITC; for Kd: murine PGP. Here is the method: Purified murine PGP-WT or PGP-P127E was dialyzed overnight against ITC buffer (30 mM HEPES, 30 mM NaCl, 5 mM MgCl2, 1 mM tris(2-carboxyethyl)phosphine/TCEP; pH 7.5). All calorimetric measurements were performed at 25 °C on an ITC200 microcalorimeter (GE Healthcare). Experiments were conducted with a fixed concentration of 2% DMSO. […] To reduce the effects of ligand leakage from the syringe during baseline equilibration, the heat release of a single 1.2 μL injection was recorded prior to the actual titration experiment, and discarded during data analysis with Nitpic 2.0.7[45]. To determine background heats of dilution, control experiments of ligand into buffer, buffer into protein and buffer into buffer titrations were performed.
Background: Isothermal titration calorimetry measures the heat released or taken up as one component is titrated into another.

A further experiment concerns the target T2, NT5C1A (Homo sapiens, UniProt Q9BXI3).
T2 construct: purchased Origene #TP324617
T2 sequence (Q9BXI3 1-368): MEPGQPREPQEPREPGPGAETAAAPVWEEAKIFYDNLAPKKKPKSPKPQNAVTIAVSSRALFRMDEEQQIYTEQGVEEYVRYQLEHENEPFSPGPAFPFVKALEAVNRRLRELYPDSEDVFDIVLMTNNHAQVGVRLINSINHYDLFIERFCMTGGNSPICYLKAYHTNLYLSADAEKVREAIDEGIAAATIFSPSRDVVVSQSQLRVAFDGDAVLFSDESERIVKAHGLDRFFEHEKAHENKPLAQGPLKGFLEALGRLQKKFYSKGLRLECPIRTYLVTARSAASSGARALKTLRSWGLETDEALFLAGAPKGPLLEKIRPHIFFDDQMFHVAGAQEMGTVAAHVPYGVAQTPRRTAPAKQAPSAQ
The experiment is described as follows: In vitro phosphatase activity assay, NT5C1A (AMP). The format is biochemical. The note with it: DMSO control = 100, read-out: NT5C1A activity on AMP in presence of CP relative to DMSO controls; for remaining activity at 50 µM: CP log[M] -4.30103; for remaining activity at 40 µM: CP log[M] -4.39794; for remaining activity at 30 µM: CP log[M] -4.52288; for remaining activity at 25 µM: CP log[M] -4.60206; for remaining activity at 20 µM: CP log[M] -4.69897; for remaining activity at 15 µM: CP log[M] -4.82391; for remaining activity at 10 µM: CP log[M] -5; for remaining activity at 5 µM: CP log[M] -5.30103; for remaining activity at […]: CP log[M] -5.60206.

The target of a further experiment is T3, PGP^S71R (Mus musculus, UniProt Q8CHP8, S71R).
T3 sequence (Q8CHP8 1-321 S71R): T1 sequence (Q8CHP8 1-321) with S71R
The note with it: read-out: enzyme activity in presence of CP1 relative to DMSO control (1), mPGP-S71R, Exp #1-#3.

For the next experiment, the target named is T4, PGP^172FDPH>YDEQ (Mus musculus, UniProt Q8CHP8, F172Y/H175Q/P174E).
T4 sequence (Q8CHP8 1-321 F172Y/P174E/H175Q): T1 sequence (Q8CHP8 1-321) with F172Y, P174E, H175Q
The following applies: read-out: enzyme activity in presence of CP1 relative to DMSO control (1), mPGP-172FDPH>172YDEQ.

This note sets out measurements from paper PMC9652372, “Glycolytic flux control by drugging phosphoglycolate phosphatase” (Nature Communications, 2022).

Changes are numbered by the printed parent chain. Several values for one entry are separate records, joined by “and”; a condition that tells them apart may be missing. Equal entries are not always repeated.

Procedure for NT5C1A: Purified human NT5C1A (NM_032526, #TP324617) and purified human PHOSPHO1 (NM_178500, #TP314434) were from Origene. […] Data were analyzed with GraphPad Prism 7.04. […] Data are mean values ± S.E.M. of n=3 independent experiments.

In general, Kd refers to the free concentration of one partner at which half of the binding sites on the other are occupied at equilibrium, for simple one-to-one binding. Take `O=C(Nc1ccccc1C(=O)O)c1ccc(Oc2ccc(C(=O)Nc3ccccc3C(=O)O)cc2)cc1` [CP1]: the Kd at murine PGP-WT (25 °C, mean ± S.E.M., n = 3) was 780 nM. Further, at murine PGP-WT (single replicates), the Kd was 850 nM and 790 nM and 710 nM; the dG is -8.282 kcal/mol and -8.325 kcal/mol and -8.393 kcal/mol; the dH was -5.583 kcal/mol and -4.903 kcal/mol and -5.696 kcal/mol; the dS was 9.052 cal/Mol*K and 11.478 cal/Mol*K and 9.044 cal/Mol*K. Also, the remaining activity at 80 µM on NT5C1A (CP log[M] -4.09691) is 12.2%. In addition, the remaining activity at 60 µM at NT5C1A (CP log[M] -4.22185) was 13.1%. Moreover, on NT5C1A, the remaining activity at 50 µM was 13.1%, the remaining activity at 40 µM was found to be 16.3%, the remaining activity at 30 µM came to 38.9% and the remaining activity at 25 µM came out at 50.7%. Also, on NT5C1A, the remaining activity at 20 µM was found to be 57%, the remaining activity at 15 µM was 83.3%, the remaining activity at 10 µM amounted to 90.5% and the remaining activity at 5 µM worked out at 104%. At NT5C1A, the remaining activity at […] turned out to be 86.9%. In addition, the remaining activity at 39.81 µM on PGP^S71R (CP1 log[M] -4.40) was 25%. On PGP^S71R (CP1 log[M] -4.70), the remaining activity at 19.95 µM is 38%. Moreover, the remaining activity at 10 µM on PGP^S71R (CP1 log[M] -5.00) came to 50%. The remaining activity at 5.012 µM at PGP^S71R (CP1 log[M] -5.30) was 68%. Further, on PGP^S71R (CP1 log[M] -5.60), the remaining activity at 2.512 µM came to 81%. The remaining activity at 0.631 µM at PGP^S71R (CP1 log[M] -6.20) was 95%. At PGP^S71R (CP1 log[M] -6.51), the remaining activity at […] was found to be 100%. Besides, the remaining activity at 0.1549 µM on PGP^S71R (CP1 log[M] -6.81) was found to be 92%. The remaining activity at 15.85 µM on PGP^172FDPH>YDEQ (CP1 log[M] -4.80, Exp #1-#3) stood at 82%. On PGP^172FDPH>YDEQ (CP1 log[M] -5.10, Exp #1-#3), the remaining activity at 7.943 µM was determined as 88%. Besides, at PGP^172FDPH>YDEQ (CP1 log[M] -5.40, Exp #1-#3), the remaining activity at 3.981 µM turned out to be 86%. In addition, the remaining activity at 1.995 µM on PGP^172FDPH>YDEQ (CP1 log[M] -5.70, Exp #1-#3) was found to be 98%. Besides, the remaining activity at 1 µM on PGP^172FDPH>YDEQ (CP1 log[M] -6.00, Exp #2-#3) is 97%. Besides, the remaining activity at 0.5012 µM on PGP^172FDPH>YDEQ (CP1 log[M] -6.30, Exp #1-#3) was determined as 88%. The remaining activity at 0.2512 µM on PGP^172FDPH>YDEQ (CP1 log[M] -6.60, Exp #1-#3) was 92%. Also, at PGP^172FDPH>YDEQ (CP1 log[M] -6.90, Exp #1-#3), the remaining activity at 0.1259 µM is 86%.

With `O=C(O)c1cc(Nc2ccccc2C(=O)O)nc(Nc2ccccc2C(=O)O)n1` [CP3], the Kd on murine PGP-WT (25 °C, mean ± S.E.M., n = 3) came out at 430 nM. At murine PGP-WT (single replicates), the Kd is 500 nM and 320 nM and 460 nM; the dG was -8.598 kcal/mol and -8.862 kcal/mol and -8.651 kcal/mol; the dH is -6.466 kcal/mol and -5.835 kcal/mol and -6.568 kcal/mol; the dS was 7.151 cal/Mol*K and 10.151 cal/Mol*K and 6.986 cal/Mol*K.

For `COc1ccc(C(=O)Nc2ccc(Cc3ccc(NC(=O)c4ccc(OC)c(OC)c4)c(C(=O)O)c3)cc2C(=O)O)cc1OC` [CP2], at NT5C1A, the remaining activity at 50 µM was 11.9%, the remaining activity at 40 µM stood at 20.5%, the remaining activity at 30 µM is 33.1% and the remaining activity at 25 µM came out at 45.1%. At NT5C1A, the remaining activity at 20 µM came out at 62.1%, the remaining activity at 15 µM turned out to be 69%, the remaining activity at 10 µM was found to be 74.2% and the remaining activity at 5 µM came out at 83.9%. Also, the remaining activity at […] on NT5C1A turned out to be 91.1%.
